# Source: patent US9266835B2, “Quinoline derivatives useful as CB-1 inverse agonists” (JANSSEN PHARMACEUTICA NV, priority 2014, dated 2016)
# Experiment: Chronic DIO Mouse, second study (food intake, body weight, insulin tolerance test, glucose tolerance test, plasma insulin, fed blood glucose)
# Assay type: in vivo
# Conditions: DIO mice
# Procedure: Male 14-20-week old diet-induced obese mice were ordered from Taconic. Mice were started on a 60% fat diet (D12492, Research Diets, New Brunswick, N.J.) at 6 weeks of age. Mice were single-housed.
# Test compounds were formulated in 10% PEG400 and 10% solutol. Test compounds were administered by oral gavage (5 ml kg^−1).
# The test compound was formulated in 10% PEG400 and 10% solutol. DIO mice received vehicle, test compound (@ 1, 3 and 10 mg/kg) daily for 26 days. At the end of the experiment, the mice were euthanized and blood and tissues were collected.
# Body weight and food weight (food intake) were monitored daily for days 1-5 and twice weekly thereafter. Fed blood glucose was measured weekly.
# An insulin tolerance test (0.5 U/kg Humulin, ip) was performed on day 19 after a 4 hour food removal. Blood glucose was measured at 0, 15, 30, 60 and 120 minutes after insulin. […] Blood glucose was measured at 0, 30, 60 and 120 minutes after glucose challenge.
# Blood glucose was measured from the tail vein with a Lifescan glucometer. Plasma insulin was measured with an ELISA or HTRF kit (Cisbio). Plasma parameters were measured with an Olympus clinical chemistry analyzer.
# In a second study, Compound #44 was tested according to the procedure as described above, with results as listed in Tables BIO-5A through 5G, below.
structure (smiles),measurement,setting,value
"O=c1cc(NC2CCN(S(=O)(=O)C(F)(F)F)CC2)c2cc(C(c3ccc(Cl)cc3)c3ccc(Cl)cc3)ccc2[nH]1 [Compound #44, 6-(bis(4-chlorophenyl)methyl)-4-(1-(trifluoromethylsulfonyl)piperidin-4-ylamino)quinolin-2(1H)-one]","Insulin Tolerance Test, Blood Glucose AUC",0.3 mg/kg,20233.13 mg·min/dL
same,Intraperitoneal Glucose Tolerance Test Blood Glucose AUC,0.3 mg/kg,21550.00 mg·min/dL
same,Plasma Insulin (Std Err),0.3 mg/kg,3.89 (0.31) ng/mL
same,Intraperitoneal Glucose Tolerance Test Mean Blood Glucose,"0.3 mg/kg, 0 min after glucose",155.44 mg/dL
same,"Insulin Tolerance Test, Mean Blood Glucose","0.3 mg/kg, 0 min after insulin",185.00 mg/dL
same,"Insulin Tolerance Test, Mean Blood Glucose","0.3 mg/kg, 15 min after insulin",172.38 mg/dL
same,Intraperitoneal Glucose Tolerance Test Mean Blood Glucose,"0.3 mg/kg, 30 min after glucose",204.33 mg/dL
same,"Insulin Tolerance Test, Mean Blood Glucose","0.3 mg/kg, 30 min after insulin",164.13 mg/dL
same,Intraperitoneal Glucose Tolerance Test Mean Blood Glucose,"0.3 mg/kg, 60 min after glucose",187.67 mg/dL
same,"Insulin Tolerance Test, Mean Blood Glucose","0.3 mg/kg, 60 min after insulin",169.38 mg/dL
same,Intraperitoneal Glucose Tolerance Test Mean Blood Glucose,"0.3 mg/kg, 120 min after glucose",154.78 mg/dL
same,"Insulin Tolerance Test, Mean Blood Glucose","0.3 mg/kg, 120 min after insulin",165.13 mg/dL
same,Fed Blood Glucose (Std Err),"0.3 mg/kg, Day 0",165.4 (8.16) mg/dL
same,Mean Body Weight,"0.3 mg/kg, Day 1",40.78 Grams
same,Mean Body Weight,"0.3 mg/kg, Day 2",40.87 Grams
same,Mean Daily Food Intake,"0.3 mg/kg, Day 2",2.51 Grams
same,Mean Body Weight,"0.3 mg/kg, Day 3",40.77 Grams
same,Mean Daily Food Intake,"0.3 mg/kg, Day 3",2.92 Grams
same,Mean Body Weight,"0.3 mg/kg, Day 4",40.33 Grams
same,Mean Daily Food Intake,"0.3 mg/kg, Day 4",2.76 Grams
same,Mean Body Weight,"0.3 mg/kg, Day 5",40.53 Grams
same,Mean Daily Food Intake,"0.3 mg/kg, Day 5",2.64 Grams
same,Mean Body Weight,"0.3 mg/kg, Day 8",40.87 Grams
same,Mean Daily Food Intake,"0.3 mg/kg, Day 8",2.80 Grams
same,Mean Body Weight,"0.3 mg/kg, Day 10",41.06 Grams
same,Mean Daily Food Intake,"0.3 mg/kg, Day 10",2.81 Grams
same,Mean Body Weight,"0.3 mg/kg, Day 11",41.61 Grams
same,Mean Daily Food Intake,"0.3 mg/kg, Day 11",2.68 Grams
same,Fed Blood Glucose (Std Err),"0.3 mg/kg, Day 18",161.22 (6.29) mg/dL
same,"Insulin Tolerance Test, Blood Glucose AUC",1 mg/kg,21698.33 mg·min/dL
same,Intraperitoneal Glucose Tolerance Test Blood Glucose AUC,1 mg/kg,22102.50 mg·min/dL
same,Plasma Insulin (Std Err),1 mg/kg,3.12 (0.64) ng/mL
same,Intraperitoneal Glucose Tolerance Test Mean Blood Glucose,"1 mg/kg, 0 min after glucose",156.60 mg/dL
same,"Insulin Tolerance Test, Mean Blood Glucose","1 mg/kg, 0 min after insulin",181.70 mg/dL
same,"Insulin Tolerance Test, Mean Blood Glucose","1 mg/kg, 15 min after insulin",193.89 mg/dL
same,Intraperitoneal Glucose Tolerance Test Mean Blood Glucose,"1 mg/kg, 30 min after glucose",225.20 mg/dL
same,"Insulin Tolerance Test, Mean Blood Glucose","1 mg/kg, 30 min after insulin",170.56 mg/dL
same,Intraperitoneal Glucose Tolerance Test Mean Blood Glucose,"1 mg/kg, 60 min after glucose",185.50 mg/dL
same,"Insulin Tolerance Test, Mean Blood Glucose","1 mg/kg, 60 min after insulin",182.78 mg/dL
same,Intraperitoneal Glucose Tolerance Test Mean Blood Glucose,"1 mg/kg, 120 min after glucose",155.00 mg/dL
same,"Insulin Tolerance Test, Mean Blood Glucose","1 mg/kg, 120 min after insulin",179.40 mg/dL
same,Fed Blood Glucose (Std Err),"1 mg/kg, Day 0",170.80 (5.99) mg/dL
same,Mean Body Weight,"1 mg/kg, Day 1",40.60 Grams
same,Mean Body Weight,"1 mg/kg, Day 2",40.78 Grams
same,Mean Daily Food Intake,"1 mg/kg, Day 2",2.84 Grams
same,Mean Body Weight,"1 mg/kg, Day 3",40.85 Grams
same,Mean Daily Food Intake,"1 mg/kg, Day 3",2.79 Grams
same,Mean Body Weight,"1 mg/kg, Day 4",40.36 Grams
same,Mean Daily Food Intake,"1 mg/kg, Day 4",2.45 Grams
same,Mean Body Weight,"1 mg/kg, Day 5",40.42 Grams
same,Mean Daily Food Intake,"1 mg/kg, Day 5",2.49 Grams
same,Mean Body Weight,"1 mg/kg, Day 8",40.16 Grams
same,Mean Daily Food Intake,"1 mg/kg, Day 8",2.63 Grams
same,Mean Body Weight,"1 mg/kg, Day 10",40.73 Grams
same,Mean Daily Food Intake,"1 mg/kg, Day 10",2.67 Grams
same,Mean Body Weight,"1 mg/kg, Day 11",40.74 Grams
same,Mean Daily Food Intake,"1 mg/kg, Day 11",2.57 Grams
same,Fed Blood Glucose (Std Err),"1 mg/kg, Day 18",151.20 (6.14) mg/dL
same,"Insulin Tolerance Test, Blood Glucose AUC",3 mg/kg,19435.83 mg·min/dL
same,Intraperitoneal Glucose Tolerance Test Blood Glucose AUC,3 mg/kg,20854.50 mg·min/dL
same,Plasma Insulin (Std Err),3 mg/kg,1.74 (0.14) ng/mL
same,Intraperitoneal Glucose Tolerance Test Mean Blood Glucose,"3 mg/kg, 0 min after glucose",141.30 mg/dL
same,"Insulin Tolerance Test, Mean Blood Glucose","3 mg/kg, 0 min after insulin",161.10 mg/dL
same,"Insulin Tolerance Test, Mean Blood Glucose","3 mg/kg, 15 min after insulin",179.67 mg/dL
same,Intraperitoneal Glucose Tolerance Test Mean Blood Glucose,"3 mg/kg, 30 min after glucose",224.30 mg/dL
same,"Insulin Tolerance Test, Mean Blood Glucose","3 mg/kg, 30 min after insulin",156.33 mg/dL
same,Intraperitoneal Glucose Tolerance Test Mean Blood Glucose,"3 mg/kg, 60 min after glucose",174.20 mg/dL
same,"Insulin Tolerance Test, Mean Blood Glucose","3 mg/kg, 60 min after insulin",167.22 mg/dL
same,Intraperitoneal Glucose Tolerance Test Mean Blood Glucose,"3 mg/kg, 120 min after glucose",138.90 mg/dL
same,"Insulin Tolerance Test, Mean Blood Glucose","3 mg/kg, 120 min after insulin",159.78 mg/dL
same,Fed Blood Glucose (Std Err),"3 mg/kg, Day 0",161.8 (6.57) mg/dL
same,Mean Body Weight,"3 mg/kg, Day 1",40.54 Grams
same,Mean Body Weight,"3 mg/kg, Day 2",40.47 Grams
same,Mean Daily Food Intake,"3 mg/kg, Day 2",2.50 Grams
same,Mean Body Weight,"3 mg/kg, Day 3",40.24 Grams
same,Mean Daily Food Intake,"3 mg/kg, Day 3",2.41 Grams
same,Mean Body Weight,"3 mg/kg, Day 4",39.39 Grams
same,Mean Daily Food Intake,"3 mg/kg, Day 4",2.02 Grams
same,Mean Body Weight,"3 mg/kg, Day 5",39.11 Grams
same,Mean Daily Food Intake,"3 mg/kg, Day 5",2.02 Grams
same,Mean Body Weight,"3 mg/kg, Day 8",38.59 Grams
same,Mean Daily Food Intake,"3 mg/kg, Day 8",2.13 Grams
same,Mean Body Weight,"3 mg/kg, Day 10",38.48 Grams
same,Mean Daily Food Intake,"3 mg/kg, Day 10",2.57 Grams
same,Mean Body Weight,"3 mg/kg, Day 11",38.13 Grams
same,Mean Daily Food Intake,"3 mg/kg, Day 11",2.29 Grams
same,Fed Blood Glucose (Std Err),"3 mg/kg, Day 18",142.60 (4.44) mg/dL
same,"Insulin Tolerance Test, Blood Glucose AUC",10 mg/kg,16134.75 mg·min/dL
same,Intraperitoneal Glucose Tolerance Test Blood Glucose AUC,10 mg/kg,20820.00 mg·min/dL
same,Plasma Insulin (Std Err),10 mg/kg,1.64 (0.32) ng/mL
same,Intraperitoneal Glucose Tolerance Test Mean Blood Glucose,"10 mg/kg, 0 min after glucose",149.00 mg/dL
same,"Insulin Tolerance Test, Mean Blood Glucose","10 mg/kg, 0 min after insulin",161.10 mg/dL
same,"Insulin Tolerance Test, Mean Blood Glucose","10 mg/kg, 15 min after insulin",143.90 mg/dL
same,Intraperitoneal Glucose Tolerance Test Mean Blood Glucose,"10 mg/kg, 30 min after glucose",218.50 mg/dL
same,"Insulin Tolerance Test, Mean Blood Glucose","10 mg/kg, 30 min after insulin",133.60 mg/dL
same,Intraperitoneal Glucose Tolerance Test Mean Blood Glucose,"10 mg/kg, 60 min after glucose",169.60 mg/dL
same,"Insulin Tolerance Test, Mean Blood Glucose","10 mg/kg, 60 min after insulin",126.20 mg/dL
same,Intraperitoneal Glucose Tolerance Test Mean Blood Glucose,"10 mg/kg, 120 min after glucose",146.60 mg/dL
same,"Insulin Tolerance Test, Mean Blood Glucose","10 mg/kg, 120 min after insulin",136.10 mg/dL
same,Fed Blood Glucose (Std Err),"10 mg/kg, Day 0",167.9 (4.63) mg/dL
same,Mean Body Weight,"10 mg/kg, Day 1",40.51 Grams
same,Mean Body Weight,"10 mg/kg, Day 2",39.87 Grams
same,Mean Daily Food Intake,"10 mg/kg, Day 2",2.07 Grams
same,Mean Body Weight,"10 mg/kg, Day 3",39.16 Grams
same,Mean Daily Food Intake,"10 mg/kg, Day 3",1.63 Grams
same,Mean Body Weight,"10 mg/kg, Day 4",38.04 Grams
same,Mean Daily Food Intake,"10 mg/kg, Day 4",1.48 Grams
same,Mean Body Weight,"10 mg/kg, Day 5",37.5 Grams
same,Mean Daily Food Intake,"10 mg/kg, Day 5",1.38 Grams
same,Mean Body Weight,"10 mg/kg, Day 8",35.69 Grams
same,Mean Daily Food Intake,"10 mg/kg, Day 8",1.64 Grams
same,Mean Body Weight,"10 mg/kg, Day 10",35.08 Grams
same,Mean Daily Food Intake,"10 mg/kg, Day 10",2.08 Grams
same,Mean Body Weight,"10 mg/kg, Day 11",34.63 Grams
same,Mean Daily Food Intake,"10 mg/kg, Day 11",2.12 Grams
same,Fed Blood Glucose (Std Err),"10 mg/kg, Day 18",144.30 (6.47) mg/dL
